Measured values as given in US9662323B2, “Compounds having muscarinic receptor antagonist and beta2 adrenergic receptor agonist activity” (CHIESI FARMACEUTICI S.p.A., priority 2015, dated 2017).

Columns and labels:
Human M3 receptor = biological target: T1, Human M3 receptor (Homo sapiens, UniProt P20309); assay: M3 Receptor Radioligand Binding Assay; details: human M3 receptor membranes, [3H]-N-methyl scopolamine; read-out: M3 binding affinity (Ki class)
T1 construct: purchased Perkin Elmer
Procedure, shortened: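 Radioligand binding with 0.5% (v/v) final DMSO, incubated 2 h at room temperature with shaking. Membranes were collected on GF/C filters pre-treated with 0.5% polyethyleneimine, washed four times with assay buffer, and counted by scintillation.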

Human β2 adrenoceptor = biological target: T2, Human β2 adrenoceptor (Homo sapiens, UniProt P07550); assay: β2 Adrenoceptor Radioligand Binding Assay; details: human β2 adrenoceptor membranes, 125-I Cyanopindolol; read-out: B2 binding affinity (Ki class)
T2 construct: purchased Perkin Elmer
T2 sequence (P07550 whole entry): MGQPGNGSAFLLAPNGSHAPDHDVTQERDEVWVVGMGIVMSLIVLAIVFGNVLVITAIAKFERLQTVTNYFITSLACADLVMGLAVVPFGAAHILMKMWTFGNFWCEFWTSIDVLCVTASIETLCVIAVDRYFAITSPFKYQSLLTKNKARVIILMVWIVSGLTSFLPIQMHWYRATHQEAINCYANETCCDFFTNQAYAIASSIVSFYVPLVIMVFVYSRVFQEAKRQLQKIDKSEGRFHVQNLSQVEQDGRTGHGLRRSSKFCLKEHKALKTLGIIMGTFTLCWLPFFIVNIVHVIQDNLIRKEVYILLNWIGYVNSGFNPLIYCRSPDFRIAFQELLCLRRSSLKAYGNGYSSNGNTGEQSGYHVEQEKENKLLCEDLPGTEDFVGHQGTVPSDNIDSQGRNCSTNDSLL
Procedure, shortened: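 Membranes were incubated 1 h at room temperature in 25 mM HEPES, 0.5% BSA, 1 mM EDTA, 0.02% ascorbic acid, pH 7.4, with 0.5% DMSO final. Bound radioligand was collected by GF/C filtration and counted by scintillation. IC50 values from competition curves were converted to Ki by Cheng–Prusoff.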

T1 sequence (P20309 whole entry): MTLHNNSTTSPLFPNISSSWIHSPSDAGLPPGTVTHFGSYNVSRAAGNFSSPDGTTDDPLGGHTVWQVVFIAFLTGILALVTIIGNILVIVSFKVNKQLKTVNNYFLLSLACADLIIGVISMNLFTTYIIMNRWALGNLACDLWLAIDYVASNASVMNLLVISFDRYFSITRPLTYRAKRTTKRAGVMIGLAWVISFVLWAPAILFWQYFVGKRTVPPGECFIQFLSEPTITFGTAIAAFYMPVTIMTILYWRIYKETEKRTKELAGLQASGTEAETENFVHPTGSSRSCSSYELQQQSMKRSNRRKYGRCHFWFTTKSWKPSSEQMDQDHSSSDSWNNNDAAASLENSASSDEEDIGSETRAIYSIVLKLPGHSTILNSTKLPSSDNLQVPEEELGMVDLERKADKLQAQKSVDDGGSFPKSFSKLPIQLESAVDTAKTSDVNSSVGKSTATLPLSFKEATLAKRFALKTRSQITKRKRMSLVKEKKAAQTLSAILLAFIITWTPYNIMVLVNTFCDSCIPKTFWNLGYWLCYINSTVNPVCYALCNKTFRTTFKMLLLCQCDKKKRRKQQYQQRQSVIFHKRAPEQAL

| Structure (SMILES) | Ki (Human M3 receptor) | Ki (Human β2 adrenoceptor) |
| --- | --- | --- |
| O=C(c1ccc(OCCCCCCNC[C@H](O)c2ccc(O)c3[nH]c(=O)ccc23)cc1)N1CCC(C(=O)O[C@H]2CN3CCC2CC3)(c2ccc(Cl)cc2)CC1 [Compound 51, (R)-Quinuclidin-3-yl 4-(4-chlorophenyl)-1-(4-((6-(((R)-2-hydroxy-2-(8-hydroxy-2-oxo-1,2-dihydroquinolin-5-yl)ethyl)amino)hexyl)oxy)benzoyl)piperidine-4-carboxylate] | 1 to 10 nM | < 1 nM |
| Cc1cccc(CN(CCCNC[C@H](O)c2ccc(O)c3[nH]c(=O)ccc23)C(=O)Cc2ccc(CC(=O)N3CCC(C(=O)O[C@H]4CN5CCC4CC5)(c4ccccc4)CC3)cc2)c1 [Compound 35, (R)-Quinuclidin-3-yl 1-(2-(4-(2-((3-(((R)-2-hydroxy-2-(8-hydroxy-2-oxo-1,2-dihydroquinolin-5-yl)ethyl)amino)propyl)(3-methylbenzyl)amino)-2-oxoethyl)phenyl)acetyl)-4-phenylpiperidine-4-carboxylate] | < 1 nM | < 1 nM |
| O=C(Cc1cccc(OCCCCCNC[C@H](O)c2ccc(O)c3[nH]c(=O)ccc23)c1)N1CCC(C(=O)O[C@H]2CN3CCC2CC3)(c2ccccc2)CC1 [Compound 11, (R)-Quinuclidin-3-yl 1-(2-(3-((5-(((R)-2-hydroxy-2-(8-hydroxy-2-oxo-1,2-dihydroquinolin-5-yl)ethyl)amino)pentyl)oxy)phenyl)acetyl)-4-phenylpiperidine-4-carboxylate] | 1 to 10 nM | < 1 nM |
| O=C(NCc1ccc(CNC[C@H](O)c2ccc(O)c3[nH]c(=O)ccc23)cc1)c1ccc(C(=O)N2CCC(C(=O)O[C@H]3CN4CCC3CC4)(c3ccccc3)CC2)cc1 [Compound 23, (R)-Quinuclidin-3-yl 1-(4-((4-((((R)-2-hydroxy-2-(8-hydroxy-2-oxo-1,2-dihydroquinolin-5-yl)ethyl)amino)methyl)benzyl)carbamoyl)benzoyl)-4-phenylpiperidine-4-carboxylate] | < 1 nM | 1 to 10 nM |
| O=C(NCc1ccc(CNC[C@H](O)c2ccc(O)c3[nH]c(=O)ccc23)cc1)c1ccc(C(=O)N2CC(C(=O)O[C@H]3CN4CCC3CC4)(c3ccccc3)C2)cc1 [Compound 9A, (R)-Quinuclidin-3-yl 1-(4-((4-((((R)-2-hydroxy-2-(8-hydroxy-2-oxo-1,2-dihydroquinolin-5-yl)ethyl)amino)methyl)benzyl)carbamoyl)benzoyl)-3-phenylazetidine-3-carboxylate] | < 1 nM | 1 to 10 nM |
| COC(=O)N(Cc1ccc(CNC[C@H](O)c2ccc(O)c3[nH]c(=O)ccc23)cc1)Cc1ccc(C(=O)N2CCC(C(=O)O[C@H]3CN4CCC3CC4)(c3ccccc3)CC2)cc1 [Compound 62, (R)-Quinuclidin-3-yl 1-(4-(((4-((((R)-2-hydroxy-2-(8-hydroxy-2-oxo-1,2-dihydroquinolin-5-yl)ethyl)amino)methyl)benzyl)(methoxycarbonyl)amino)-methyl)benzoyl)-4-phenylpiperidine-4-carboxylate] | < 1 nM | 1 to 10 nM |
| O=C(Cc1ccc(OCCCCCNC[C@H](O)c2ccc(O)c3[nH]c(=O)ccc23)cc1)N1CC(C(=O)O[C@H]2CN3CCC2CC3)(c2ccccc2)C1 [Compound 6A, (R)-Quinuclidin-3-yl 1-(2-(4-((5-(((R)-2-hydroxy-2-(8-hydroxy-2-oxo-1,2-dihydroquinolin-5-yl)ethyl)amino)pentyl)oxy)phenyl)acetyl)-3-phenylazetidine-3-carboxylate] | 1 to 10 nM | < 1 nM |
| O=C(c1ccc(OCCCCCNC[C@H](O)c2ccc(O)c3[nH]c(=O)ccc23)c(Cl)c1)N1CCC(C(=O)O[C@H]2CN3CCC2CC3)(c2ccccc2)CC1 [Compound 4, (R)-Quinuclidin-3-yl 1-(4-((5-(((R)-2-hydroxy-2-(8-hydroxy-2-oxo-1,2-dihydroquinolin-5-yl)ethyl)amino)pentyl)oxy)-3-chlorobenzoyl)-4-phenylpiperidine-4-carboxylate] | 1 to 10 nM | < 1 nM |
| O=C(NCCCCNC[C@H](O)c1ccc(O)c2[nH]c(=O)ccc12)c1ccc(C(=O)N2CCC(C(=O)O[C@H]3CN4CCC3CC4)(c3ccccc3)CC2)cc1 [Compound 19, (R)-Quinuclidin-3-yl 1-(4-((4-(((R)-2-hydroxy-2-(8-hydroxy-2-oxo-1,2-dihydroquinolin-5-yl)ethyl)amino)butyl)carbamoyl)benzoyl)-4-phenylpiperidine-4-carboxylate] | 1 to 10 nM | < 1 nM |
| CS(=O)(=O)N(Cc1ccc(CNC[C@H](O)c2ccc(O)c3[nH]c(=O)ccc23)cc1)Cc1ccc(C(=O)N2CCC(C(=O)O[C@H]3CN4CCC3CC4)(c3ccccc3)CC2)cc1 [Compound 58, (R)-Quinuclidin-3-yl 1-(4-((N-(4-((((R)-2-hydroxy-2-(8-hydroxy-2-oxo-1,2-dihydroquinolin-5-yl)ethyl)amino)methyl)benzyl)methylsulfonamido)-methyl)benzoyl)-4-phenylpiperidine-4-carboxylate] | 1 to 10 nM | 1 to 10 nM |
| O=C(CCc1ccc(OCc2ccc(CNC[C@H](O)c3ccc(O)c4[nH]c(=O)ccc34)cc2)cc1)N1CC(C(=O)O[C@H]2CN3CCC2CC3)(c2ccccc2)C1 [Compound 13A, (R)-Quinuclidin-3-yl 1-(3-(4-((4-((((R)-2-hydroxy-2-(8-hydroxy-2-oxo-1,2-dihydroquinolin-5-yl)ethyl)amino)methyl)benzyl)oxy)phenyl)propanoyl)-3-phenylazetidine-3-carboxylate] | 1 to 10 nM | 1 to 10 nM |
| O=C(Cc1ccc(CC(=O)N2CCC(C(=O)O[C@H]3CN4CCC3CC4)(c3ccccc3)CC2)cc1)NCCCNC[C@H](O)c1ccc(O)c2[nH]c(=O)ccc12 [Compound 46, (R)-Quinuclidin-3-yl 1-(2-(4-(2-((3-(((R)-2-hydroxy-2-(8-hydroxy-2-oxo-1,2-dihydroquinolin-5-yl)ethyl)amino)propyl)amino)-2-oxoethyl)phenyl)acetyl)-4-phenylpiperidine-4-carboxylate] | > 10 nM | > 10 nM |
| O=C(NCc1ccc(CCNC[C@H](O)c2ccc(O)c3[nH]c(=O)ccc23)cc1)c1ccc(C(=O)N2CC(C(=O)O[C@H]3CN4CCC3CC4)(c3ccccc3)C2)cc1 [Compound 16A, (R)-Quinuclidin-3-yl 1-(4-((4-(2-(((R)-2-hydroxy-2-(8-hydroxy-2-oxo-1,2-dihydroquinolin-5-yl)ethyl)amino)ethyl)benzyl)carbamoyl)benzoyl)-3-phenylazetidine-3-carboxylate] | < 1 nM | < 1 nM |
| O=C(CCc1ccc(OCc2ccc(CNC[C@H](O)c3ccc(O)c4[nH]c(=O)ccc34)cc2)cc1)N1CCC(C(=O)O[C@H]2CN3CCC2CC3)(c2ccccc2)CC1 [Compound 56, (R)-Quinuclidin-3-yl 1-(3-(4-((4-((((R)-2-hydroxy-2-(8-hydroxy-2-oxo-1,2-dihydroquinolin-5-yl)ethyl)amino)methyl)benzyl)oxy)phenyl)propanoyl)-4-phenylpiperidine-4-carboxylate] | 1 to 10 nM | < 1 nM |
| O=C(c1ccc(OCCCCCNC[C@H](O)c2ccc(O)c3[nH]c(=O)ccc23)cc1)N1CCC(C(=O)O[C@H]2CN3CCC2CC3)(c2ccccc2)CC1 [Compound 1, (R)-Quinuclidin-3-yl 1-(4-((5-(((R)-2-hydroxy-2-(8-hydroxy-2-oxo-1,2-dihydroquinolin-5-yl)ethyl)amino)pentyl)oxy)benzoyl)-4-phenylpiperidine-4-carboxylate] | < 1 nM | < 1 nM |
